“And” between values parts separate entries of the source, which are not always exact repeats. Identical values can stand only once.
Test system: HSSY-II tumor spheroid viability
Experiment: Anticancer human tumor HSSY-II cell line growth inhibition;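 further: spheroids exposed to compounds for seven days before reading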;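 on viability, T/C: percent of DMSO vehicle control viability so 100% = untreated level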
Settings: spheroids with HUVEC and MSC; for viability, T/C: stronger effect = lower value
In short: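 Complex spheroids of malignant cells with endothelial cells and mesenchymal stem cells; agents alone or combined, from near clinical Cmax (or 10 microM if unknown) down in half-log steps, 0.25% DMSO final.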

[1] = curve of first compound, second compound 0.003 µM
[2] = curve of first compound, second compound 0.00949 µM
[3] = curve of first compound, second compound 0.03 µM
[4] = curve of first compound, second compound 0.0949 µM
[5] = curve of first compound, second compound 0.3 µM
[6] = second compound 0.003 µM, first compound 0.0316 µM
[7] = second compound 0.003 µM, first compound 0.1 µM
[8] = second compound 0.003 µM, first compound 0.316 µM
[9] = second compound 0.003 µM, first compound 1 µM
[10] = second compound 0.003 µM, first compound 3.16 µM
[11] = second compound 0.003 µM, first compound 10 µM
[12] = second compound 0.00949 µM, first compound 0.0316 µM
[13] = second compound 0.00949 µM, first compound 0.1 µM
[14] = second compound 0.00949 µM, first compound 0.316 µM
[15] = second compound 0.00949 µM, first compound 1 µM
[16] = second compound 0.00949 µM, first compound 3.16 µM
[17] = second compound 0.00949 µM, first compound 10 µM
[18] = second compound 0.03 µM, first compound 0.0316 µM
[19] = second compound 0.03 µM, first compound 0.1 µM
[20] = second compound 0.03 µM, first compound 0.316 µM
[21] = second compound 0.03 µM, first compound 1 µM
[22] = second compound 0.03 µM, first compound 3.16 µM
[23] = second compound 0.03 µM, first compound 10 µM
[24] = second compound 0.0949 µM, first compound 0.0316 µM
[25] = second compound 0.0949 µM, first compound 0.1 µM
[26] = second compound 0.0949 µM, first compound 0.316 µM
[27] = second compound 0.0949 µM, first compound 1 µM
[28] = second compound 0.0949 µM, first compound 3.16 µM
[29] = second compound 0.0949 µM, first compound 10 µM
[30] = second compound 0.3 µM, first compound 0.0316 µM
[31] = second compound 0.3 µM, first compound 0.1 µM
[32] = second compound 0.3 µM, first compound 0.316 µM
[33] = second compound 0.3 µM, first compound 1 µM
[34] = second compound 0.3 µM, first compound 3.16 µM
[35] = second compound 0.3 µM, first compound 10 µM

`COc1cc(C)[nH]c(=O)c1CN1CCc2c(Cl)cc(C(OC)C3COC3)c(Cl)c2C1=O` (configuration not stated) + CC[C@@]1(O)C(=O)OCc2c1cc1n(c2=O)Cc2cc3c(CN(C)C)c(O)ccc3nc2-1 gave an IC50 [1] greater than 10000 nM, an IC50 [2] of 438 nM and an IC50 [3] of less than 31.6 nM. The IC50 [4] was less than 31.6 nM, the IC50 [5] was less than 31.6 nM and the viability, T/C [6] was 85.5%. For the same compound, the viability, T/C [7] was 83.2%, the viability, T/C [8] was 69.1% and the viability, T/C [9] was 63%. For the same compound, the viability, T/C [10] was 63.7%, the viability, T/C [11] was 56.1% and the viability, T/C [12] was 58.4%. For the same compound, the viability, T/C [13] was 59.4%, the viability, T/C [14] was 50.4% and the viability, T/C [15] was 46%. It also gave a viability, T/C [16] of 42.4%, a viability, T/C [17] of 42.8% and a viability, T/C [18] of 13.6%. For the same compound, the viability, T/C [19] was 10.9%, the viability, T/C [20] was 13.4% and the viability, T/C [21] was 13.3%. The viability, T/C [22] was 14.6%, the viability, T/C [23] was 15.1% and the viability, T/C [24] was 9.27%. It also gave a viability, T/C [25] of 10.6%, a viability, T/C [26] of 9.37% and a viability, T/C [27] of 11%. For the same compound, the viability, T/C [28] was 11.4%, the viability, T/C [29] was 13.1% and the viability, T/C [30] was 6.06%. For the same compound, the viability, T/C [31] was 6.42%, the viability, T/C [32] was 6.42% and the viability, T/C [33] was 7.59%. For the same compound, the viability, T/C [34] was 8.41% and the viability, T/C [35] was 8.2%.

In the case of `Cc1cc(C)c(CNC(=O)c2cc(-c3ccc(CN4CCOCC4)cc3)cc3c2cnn3C2CCCC2)c(=O)[nH]1`, the viability, T/C (compound 0.0316 µM) is reported as 109% and 94.6% and 92.3%, the viability, T/C (compound 0.1 µM) is reported as 107% and 99.1% and 103% and the viability, T/C (compound 0.316 µM) is reported as 107% and 106% and 102%. For the same compound, the viability, T/C (compound 1 µM) was 107% and 102% and 91.9%, the viability, T/C (compound 3.16 µM) was 104% and 95.3% and 96.5% and the viability, T/C (compound 10 µM) was 64.3% and 69.4% and 77.4%. For the same compound, the IC50 (curve of compound) was greater than 10000 nM.

Work on `[2H]c1nc(C)nc([2H])c1-c1cc(NC[C@@H](C)c2cccc3c(C(=O)NC)ccnc23)ncn1` + CC[C@@]1(O)C(=O)OCc2c1cc1n(c2=O)Cc2cc3c(CN(C)C)c(O)ccc3nc2-1 yielded an IC50 [1] greater than 10000 nM, an IC50 [2] greater than 10000 nM and an IC50 [3] of less than 31.6 nM. For the same compound, the IC50 [4] was less than 31.6 nM, the IC50 [5] was less than 31.6 nM and the viability, T/C [6] was 89.6%. It also gave a viability, T/C [7] of 93.9%, a viability, T/C [8] of 90.5% and a viability, T/C [9] of 96.5%. For the same compound, the viability, T/C [10] was 87.9%, the viability, T/C [11] was 78.7% and the viability, T/C [12] was 62%. For the same compound, the viability, T/C [13] was 64.5%, the viability, T/C [14] was 61.5% and the viability, T/C [15] was 63.9%. It also gave a viability, T/C [16] of 58%, a viability, T/C [17] of 53.9% and a viability, T/C [18] of 14.2%. It also gave a viability, T/C [19] of 13.6%, a viability, T/C [20] of 11.1% and a viability, T/C [21] of 13.1%. For the same compound, the viability, T/C [22] was 14%, the viability, T/C [23] was 16.3% and the viability, T/C [24] was 11%. For the same compound, the viability, T/C [25] was 11.4%, the viability, T/C [26] was 9.48% and the viability, T/C [27] was 10.8%. For the same compound, the viability, T/C [28] was 11.6%, the viability, T/C [29] was 12% and the viability, T/C [30] was 6.74%. The viability, T/C [31] was 7.54%, the viability, T/C [32] was 7.42% and the viability, T/C [33] was 6.87%. The viability, T/C [34] was 7.23% and the viability, T/C [35] was 8.83%.

`CNCc1ccc(-c2cc(-c3nc(-c4ccc(S(=O)(=O)C(C)C)cc4)cnc3N)on2)cc1` + Cn1nnc2c(C(N)=O)ncn2c1=O showed an IC50 (curve of first compound, second compound 1 µM) of 44.1 nM, an IC50 (curve of first compound, second compound 3.16 µM) of 49.9 nM and an IC50 (curve of first compound, second compound 10 µM) of 46 nM. For the same compound, the IC50 (curve of first compound, second compound 31.6 µM) was 47 nM, the IC50 (curve of first compound, second compound 100 µM) was 42.7 nM and the viability, T/C (second compound 1 µM, first compound 0.00949 µM) was 96.8%. The viability, T/C (second compound 1 µM, first compound 0.03 µM) was 70.5%, the viability, T/C (second compound 1 µM, first compound 0.0949 µM) was 9.33% and the viability, T/C (second compound 1 µM, first compound 0.3 µM) was 4.77%. The viability, T/C (second compound 1 µM, first compound 0.949 µM) was 1.51%, the viability, T/C (second compound 1 µM, first compound 3 µM) was 0.14% and the viability, T/C (second compound 3.16 µM, first compound 0.00949 µM) was 98.4%. The viability, T/C (second compound 3.16 µM, first compound 0.03 µM) was 81.4%, the viability, T/C (second compound 3.16 µM, first compound 0.0949 µM) was 10.3% and the viability, T/C (second compound 3.16 µM, first compound 0.3 µM) was 4.71%. The viability, T/C (second compound 3.16 µM, first compound 0.949 µM) was 1.26%, the viability, T/C (second compound 3.16 µM, first compound 3 µM) was 0.11% and the viability, T/C (second compound 10 µM, first compound 0.00949 µM) was 102%. For the same compound, the viability, T/C (second compound 10 µM, first compound 0.03 µM) was 74.7%, the viability, T/C (second compound 10 µM, first compound 0.0949 µM) was 8.12% and the viability, T/C (second compound 10 µM, first compound 0.3 µM) was 5.47%. For the same compound, the viability, T/C (second compound 10 µM, first compound 0.949 µM) was 1.58%, the viability, T/C (second compound 10 µM, first compound 3 µM) was 0.12% and the viability, T/C (second compound 31.6 µM, first compound 0.00949 µM) was 100%. It also gave a viability, T/C (second compound 31.6 µM, first compound 0.03 µM) of 75%, a viability, T/C (second compound 31.6 µM, first compound 0.0949 µM) of 10.7% and a viability, T/C (second compound 31.6 µM, first compound 0.3 µM) of 4.8%. For the same compound, the viability, T/C (second compound 31.6 µM, first compound 0.949 µM) was 2.03%, the viability, T/C (second compound 31.6 µM, first compound 3 µM) was 0.15% and the viability, T/C (second compound 100 µM, first compound 0.00949 µM) was 91.3%. For the same compound, the viability, T/C (second compound 100 µM, first compound 0.03 µM) was 69.4%, the viability, T/C (second compound 100 µM, first compound 0.0949 µM) was 5.96% and the viability, T/C (second compound 100 µM, first compound 0.3 µM) was 4.82%. For the same compound, the viability, T/C (second compound 100 µM, first compound 0.949 µM) was 1.42% and the viability, T/C (second compound 100 µM, first compound 3 µM) was 0.2%.
